Laboratory results taken from ChEMBL document CHEMBL3885881, “DrugMatrix”.

Organism: Rattus norvegicus
Test: DrugMatrix - Regimen: Daily Repeat
Type: toxicity, organism-based, Sprague-Dawley
Set-up: regimen Daily Repeat, gender Male, age 6-8 weeks
Conditions: in vivo, po, route oral GAVAGE, […]; for ABSOLUTE BASOPHIL / ABSOLUTE EOSINOPHIL / ABSOLUTE LYMPHOCYTE / ABSOLUTE MONOCYTE / ABSOLUTE SEGMENTED NEUTROPHIL / BASOPHIL / EOSINOPHIL / ERYTHROCYTE COUNT / HEMATOCRIT / HEMOGLOBIN / LEUKOCYTE COUNT / LYMPHOCYTE / MEAN CORPUSCULAR HEMOGLOBIN / MEAN CORPUSCULAR HEMOGLOBIN CONCENTRATION / MEAN CORPUSCULAR VOLUME / MONOCYTE / NEUTROPHIL / NUCLEATED RED BLOOD CELLS / PLATELET COUNT: tissue Blood; for ALANINE AMINOTRANSFERASE / ALBUMIN / ALKALINE PHOSPHATASE / ASPARTATE AMINOTRANSFERASE / BLOOD UREA NITROGEN / CARBON DIOXIDE / CHLORIDE / CHOLESTEROL / CREATINE PHOSPHOKINASE / CREATININE / GLUCOSE / LACTATE DEHYDROGENASE / LIPASE / PHOSPHORUS / POTASSIUM / SODIUM / TOTAL BILIRUBIN / TOTAL PROTEIN / URIC ACID: tissue Plasma
[1] = 48.8 mg/kg, 72 h, dose level Low, time 3 day
[2] = 48.8 mg/kg, 120 h, dose level Low, time 5 day
[3] = 488 mg/kg, 72 h, dose level High, time 3 day
[4] = 488 mg/kg, 120 h, dose level High, time 5 day

C=CCc1ccc2c(c1)OCO2 [SAFROLE]
ABSOLUTE BASOPHIL [1]: 0 CELLS/uL | ABSOLUTE EOSINOPHIL [1]: 0 CELLS/uL | ABSOLUTE LYMPHOCYTE [1]: 11419.67 CELLS/uL | ABSOLUTE MONOCYTE [1]: 222 CELLS/uL | ABSOLUTE SEGMENTED NEUTROPHIL [1]: 1191.67 CELLS/uL | BASOPHIL [1]: 0% | EOSINOPHIL [1]: 0% | ERYTHROCYTE COUNT [1]: 5.33 x10E6/uL | HEMATOCRIT [1]: 33.63% | HEMOGLOBIN [1]: 13.47 G/DL | LEUKOCYTE COUNT [1]: 12.83 x10E3/uL | LYMPHOCYTE [1]: 89% | MEAN CORPUSCULAR HEMOGLOBIN [1]: 25.3 pg | MEAN CORPUSCULAR HEMOGLOBIN CONCENTRATION [1]: 40.03 G/DL | MEAN CORPUSCULAR VOLUME [1]: 63.03 fL | MONOCYTE [1]: 1.67% | NEUTROPHIL [1]: 9.33% | NUCLEATED RED BLOOD CELLS [1]: 0 /100WBC | PLATELET COUNT [1]: 1123 x10E3/uL | ALANINE AMINOTRANSFERASE [1]: 71.67 u/L | ALBUMIN [1]: 4 G/DL | ALKALINE PHOSPHATASE [1]: 447.67 u/L | ASPARTATE AMINOTRANSFERASE [1]: 90.67 u/L | BLOOD UREA NITROGEN [1]: 13.33 mg/dL | CARBON DIOXIDE [1]: 26 mmol/L | CHLORIDE [1]: 101.67 MEQ/L | CHOLESTEROL [1]: 78.67 mg/dL | CREATINE PHOSPHOKINASE [1]: 266.33 u/L | CREATININE [1]: 0.21 mg/dL | GLUCOSE [1]: 149.33 mg/dL | LACTATE DEHYDROGENASE [1]: 158.33 u/L | LIPASE [1]: 11.67 u/L | PHOSPHORUS [1]: 11.73 mg/dL | POTASSIUM [1]: 6.6 MEQ/L | SODIUM [1]: 143.53 MEQ/L | TOTAL BILIRUBIN [1]: 0.23 mg/dL | TOTAL PROTEIN [1]: 5.57 G/DL | URIC ACID [1]: 1.4 mg/dL | ABSOLUTE BASOPHIL [2]: 0 CELLS/uL | ABSOLUTE EOSINOPHIL [2]: 30.67 CELLS/uL | ABSOLUTE LYMPHOCYTE [2]: 9371 CELLS/uL | ABSOLUTE MONOCYTE [2]: 61.33 CELLS/uL | ABSOLUTE SEGMENTED NEUTROPHIL [2]: 1037 CELLS/uL | BASOPHIL [2]: 0% | EOSINOPHIL [2]: 0.33% | ERYTHROCYTE COUNT [2]: 5.63 x10E6/uL | HEMATOCRIT [2]: 35.6% | HEMOGLOBIN [2]: 14.13 G/DL | LEUKOCYTE COUNT [2]: 10.5 x10E3/uL | LYMPHOCYTE [2]: 89% | MEAN CORPUSCULAR HEMOGLOBIN [2]: 25.07 pg | MEAN CORPUSCULAR HEMOGLOBIN CONCENTRATION [2]: 39.67 G/DL | MEAN CORPUSCULAR VOLUME [2]: 63.27 fL | MONOCYTE [2]: 0.67% | NEUTROPHIL [2]: 10% | NUCLEATED RED BLOOD CELLS [2]: 1 /100WBC | PLATELET COUNT [2]: 1163.33 x10E3/uL | ALANINE AMINOTRANSFERASE [2]: 65 u/L | ALBUMIN [2]: 4.07 G/DL | ALKALINE PHOSPHATASE [2]: 334.67 u/L | ASPARTATE AMINOTRANSFERASE [2]: 88.67 u/L | BLOOD UREA NITROGEN [2]: 12 mg/dL | CARBON DIOXIDE [2]: 31.33 mmol/L | CHLORIDE [2]: 102 MEQ/L | CHOLESTEROL [2]: 59.67 mg/dL | CREATINE PHOSPHOKINASE [2]: 260.67 u/L | CREATININE [2]: 0.22 mg/dL | GLUCOSE [2]: 164.33 mg/dL | LACTATE DEHYDROGENASE [2]: 263.33 u/L | LIPASE [2]: 11.67 u/L | PHOSPHORUS [2]: 10.97 mg/dL | POTASSIUM [2]: 6.08 MEQ/L | SODIUM [2]: 144.37 MEQ/L | TOTAL BILIRUBIN [2]: 0.17 mg/dL | TOTAL PROTEIN [2]: 5.7 G/DL | URIC ACID [2]: 1.8 mg/dL | ABSOLUTE BASOPHIL [3]: 0 CELLS/uL | ABSOLUTE EOSINOPHIL [3]: 78 CELLS/uL | ABSOLUTE LYMPHOCYTE [3]: 16011.33 CELLS/uL | ABSOLUTE MONOCYTE [3]: 75.33 CELLS/uL | ABSOLUTE SEGMENTED NEUTROPHIL [3]: 1335.33 CELLS/uL | BASOPHIL [3]: 0% | EOSINOPHIL [3]: 0.33% | ERYTHROCYTE COUNT [3]: 6.08 x10E6/uL | HEMATOCRIT [3]: 37.6% | HEMOGLOBIN [3]: 15.17 G/DL | LEUKOCYTE COUNT [3]: 17.5 x10E3/uL | LYMPHOCYTE [3]: 90.67% | MEAN CORPUSCULAR HEMOGLOBIN [3]: 24.93 pg | MEAN CORPUSCULAR HEMOGLOBIN CONCENTRATION [3]: 40.33 G/DL | MEAN CORPUSCULAR VOLUME [3]: 61.83 fL | MONOCYTE [3]: 0.67% | NEUTROPHIL [3]: 8.33% | NUCLEATED RED BLOOD CELLS [3]: 0 /100WBC | PLATELET COUNT [3]: 1291.67 x10E3/uL | ALANINE AMINOTRANSFERASE [3]: 88.33 u/L | ALBUMIN [3]: 3.93 G/DL | ALKALINE PHOSPHATASE [3]: 421 u/L | ASPARTATE AMINOTRANSFERASE [3]: 112.67 u/L | BLOOD UREA NITROGEN [3]: 8.33 mg/dL | CARBON DIOXIDE [3]: 23.33 mmol/L | CHLORIDE [3]: 105.67 MEQ/L | CHOLESTEROL [3]: 87.33 mg/dL | CREATINE PHOSPHOKINASE [3]: 340.33 u/L | CREATININE [3]: 0.13 mg/dL | GLUCOSE [3]: 142 mg/dL | LACTATE DEHYDROGENASE [3]: 539.33 u/L | LIPASE [3]: 12 u/L | PHOSPHORUS [3]: 13.57 mg/dL | POTASSIUM [3]: 6.52 MEQ/L | SODIUM [3]: 146.57 MEQ/L | TOTAL BILIRUBIN [3]: 0.2 mg/dL | TOTAL PROTEIN [3]: 5.33 G/DL | URIC ACID [3]: 2.37 mg/dL | ABSOLUTE BASOPHIL [4]: 0 CELLS/uL | ABSOLUTE EOSINOPHIL [4]: 0 CELLS/uL | ABSOLUTE LYMPHOCYTE [4]: 12133.67 CELLS/uL | ABSOLUTE MONOCYTE [4]: 150 CELLS/uL | ABSOLUTE SEGMENTED NEUTROPHIL [4]: 1216.33 CELLS/uL | BASOPHIL [4]: 0% | EOSINOPHIL [4]: 0% | ERYTHROCYTE COUNT [4]: 6.25 x10E6/uL | HEMATOCRIT [4]: 37.83% | HEMOGLOBIN [4]: 14.97 G/DL | LEUKOCYTE COUNT [4]: 13.5 x10E3/uL | LYMPHOCYTE [4]: 89.33% | MEAN CORPUSCULAR HEMOGLOBIN [4]: 23.97 pg | MEAN CORPUSCULAR HEMOGLOBIN CONCENTRATION [4]: 39.53 G/DL | MEAN CORPUSCULAR VOLUME [4]: 60.6 fL | MONOCYTE [4]: 1% | NEUTROPHIL [4]: 9.67% | NUCLEATED RED BLOOD CELLS [4]: 0 /100WBC | PLATELET COUNT [4]: 1251.67 x10E3/uL | ALANINE AMINOTRANSFERASE [4]: 106.33 u/L | ALBUMIN [4]: 3.87 G/DL | ALKALINE PHOSPHATASE [4]: 337.67 u/L | ASPARTATE AMINOTRANSFERASE [4]: 130.67 u/L | BLOOD UREA NITROGEN [4]: 10.33 mg/dL | CARBON DIOXIDE [4]: 24 mmol/L | CHLORIDE [4]: 102.33 MEQ/L | CHOLESTEROL [4]: 116.33 mg/dL | CREATINE PHOSPHOKINASE [4]: 612.33 u/L | CREATININE [4]: 0.19 mg/dL | GLUCOSE [4]: 123.33 mg/dL | LACTATE DEHYDROGENASE [4]: 662.67 u/L | LIPASE [4]: 12.67 u/L | PHOSPHORUS [4]: 11.8 mg/dL | POTASSIUM [4]: 5.41 MEQ/L | SODIUM [4]: 142.07 MEQ/L | TOTAL BILIRUBIN [4]: 0.17 mg/dL | TOTAL PROTEIN [4]: 5.6 G/DL | URIC ACID [4]: 1.37 mg/dL
